Legend:
[1] = tested on: HeLa cells; assay: Cell-death suppressing effect in HeLa cells with cell-death inducing agent, Alamar Blue viable cell count (Example 3); assay type: cell-based; conditions: final concentration of 10 μM of each compound at the time of incubation
Experimental: • (1) HeLa cells (ATCC CCL2 strain obtained from American Type Culture Collection; 1×10^6 cells/ml) were incubated for ten hours at 37° C. under 5% CO2 in DMEM-HG medium supplemented with 10% FBS, 100 units/ml penicillin, and 100 μg/ml streptomycin in a T75 flask. A 250 μl solution containing a candidate compound (10 μM-10 mM) was added to 25 ml of the above culture and incubated for an additional 1, 1.5, or 2 days at 37° C. under 5% CO2. Cells were recovered, washed with the above medium, and counted. The cells were resuspended in the above fresh medium so the medium contained 1×10^5 cells/ml. • (2) 150 μl of the suspension obtained in (1) was added into each well of a 96 well plate and the plate was incubated for four hours at 37° C. […] After ten hours, luminescence was measured with a luminescence detector to determine the viable cell count at excitation and detection wavelengths of 530 nm and 560 nm, respectively. Moreover, the viable cell count of the control, which was prepared in the same way except that a candidate compound solution was not added “Control”) or DMSO was added instead of a candidate compound “DMSO”), was also determined. […]

[2] = tested on: Mongolian gerbils; assay: Mongolian gerbil common carotid artery occlusion, hippocampus CA1 region histology (Examples 6-1 to 6-4); assay type: in vivo; conditions: oral, 8, 40, 80 or 240 mg; carotid arteries occluded for ten minutes; hematoxylin-eosin sections
Experimental: A candidate compound was dissolved in physiological saline solution to prepare a 100 mM solution with the pH adjusted to 3 to 4 with 1 N NaOH as necessary. This solution was stored. The solution was diluted with physiological saline at time of use to prepare 0.5 ml of a solution containing 8 mg (Example 6-1), 40 mg (Example 6-2), 80 mg (Example 6-3), or 240 mg (Example 6-4) of a candidate compound. The above solution was administered to Mongolian gerbils. In Examples 6-1 to 6-3, 0.5 ml of the above solution was orally administered every 24 hours. In Example 6-4 the solutions was administered once.
Two hours after the second administration in Examples 6-1 to 6-3, both Mongolian gerbil common carotid arteries were occluded for ten minutes. The gerbils were sacrificed five days later. Two hours after administration in Example 6-4, both Mongolian gerbil common carotid arteries were occluded for ten minutes, and the gerbils were sacrificed three days later. Hematoxylin-eosin stained cross-sections of the brain hippocampus CA1 region tissue were prepared, and the stained sections were expand. […]

[3] = tested on: NAIP; assay: NAIP production by western blotting in retinoic acid treated H-SY5Y cells (Example 2); assay type: cell-based; conditions: low or high concentration of retinoic acid, 30 μl/ml of 10 mM candidate compound solution, one day, vs controls (lanes 1 and 3)
Experimental: • (1) 3 ml/well of DMEM-HG medium containing H-SY5Y cells (ATCC CRL 2266 strain obtained from American Type Culture Collection; 1×10^5 cells/ml), 10% fetal bovine serum (FBS), 100 units/ml penicillin, and 100 μg/ml streptomycin was aliquoted into each well of a 6 well plate, and incubated for two days at 37° C. Either 3 μl/well (lane 2) or 15 μl/well (lane 4) of all-trans retinoic acid (2 mM) was then added to each well. Wells were then incubated for tree days at 37° C. • (2) Next, 30 μl/ml of candidate compound solution (10 mM) was added to each well and incubated for one day at 37° C. After incubation, each well was washed with 0.25 M NaCl, then filled with 10% trichloroacetic acid (TCA) on ice, and kept on ice for ten minutes. Cells were collected with a scrap and centrifuged (14,000 rpm, ten minutes, 4° C.). To prepare the samples for electrophoresis, 100 μl of urea TX solution (9 M urea solution containing 2% Triton X-100 and 5% 2-mercaptoethanol), 25 μl of 10% lithium dodecyl sulfate (LDS) solution, and 2 μl of 2M Tris solution were added to the obtained pellets. The samples were stored at −80° C. • (3) The samples for electrophoresis obtained in (2) were homogenized and then 10 μl of each sample was loaded onto READYGELSJ (Bio Rad Laboratories) and electrophoresed at 120 V for 75 minutes to conduct SDS-PAGE. […]

[4] = tested on: ALS model mice; assay: Therapeutic effect in ALS model mice (Cu/Zn-SOD gene transgenic mouse) (Example 7); assay type: in vivo
Experimental: The in vivo therapeutic effect of compound 1 was examined using an Amyotrophic Lateral Sclerosis (ALS) model animal.
A Cu/Zn-SOD gene transgenic mouse (Saishin Igaku, Vol. 57 (7), “new Amyotrophic Lateral Sclerosis (ALS) model animals”, July, 2002: p. 1622-1627: obtained from Dr. Masashi Aoki at Tohoku University, School of Medicine, Neurology) was used. The ALS model mice were divided into three groups (physiological saline administered group, compound 1 (8 mg/kg) administered group, compound 1 (40 mg/kg) administered group). Physiological saline, compound 1 (8 mg/kg), and compound 1 (40 mg/kg) were orally administered to each ALS mouse once a day from about 7 days before the predicted day of the symptom development (138-139 days after birth) until the day the mice died.

SMILES | Result (cell-death suppressing effect, tests of Example 3) [1] | suppression of cell deformation and deciduation in the CA1 region [2] | 160 kDa bands, presumably derived from NAIP [3] | Days before symptom development (P < 0.01) ([4]; 8 mg/kg orally once a day) [days] | Days between symptom development and death (P < 0.01) ([4]; 8 mg/kg orally once a day) [days] | Days of survival (P < 0.01) ([4]; 8 mg/kg orally once a day) [days] | Days before symptom development (P < 0.01) ([4]; 40 mg/kg orally once a day) [days] | Days between symptom development and death (P < 0.01) ([4]; 40 mg/kg orally once a day) [days] | Days of survival (P < 0.01) ([4]; 40 mg/kg orally once a day) [days] | effect on onset and on period between development of symptoms and death ([4]; 40 mg/kg orally once a day)
Cc1c(C2CCN(CCc3ccccc3)CC2)noc1-c1ccc(Cl)cc1 [Compound 2, 5-(4-chlorophenyl)-4-methyl-3-(1-(2-phenylethyl)piperidin 4-yl) isoxazole] | + or ± |  |  |  |  |  |  |  |  | 
Clc1ccc(N2CCN(Cc3c[nH]c4ncccc34)CC2)cc1 [Compound 1] |  | dose-dependent suppression of cell deformation and deciduation in the CA1 region | significantly strong 160 kDa bands | 138.1 ± 1.9 | 23.6 ± 2.0 | 161.7 ± 3.3 | 145.2 ± 1.8 | 28.9 ± 1.6 | 174.6 ± 2.4 | delaying the onset and prolonging the period between the development of symptoms and the death
